Data taken from patent US20230203023A1, “SALT AND CRYSTAL FORMS OF GLP-1R AGONISTS AND USES THEREOF” (QILU REGOR THERAPEUTICS INC., priority 2020, published 2023).

How the values were obtained:
[1] = Kinetic solubility test in water and bio-relevant media (SGF, FaSSIF, FeSSIF); assay type: physicochemical; details: for S: solubility: 37° C.; for Purity (%), area percentage of API: for reference only (suspensions); for FC: form change: residual solids by XRPD; for pH: supernatant
Experimental: (§1) Weigh 100 mg of sodium chloride and 50 mg of Triton X-100 into a 50-mL volumetric flask. Add appropriate volume of purified water and sonicate until all solids are completely dissolved. Add about 68 μL of 12 M HCl and sufficient purified water closely to the target volume and adjust to pH 1.8. Dilute to volume with purified water, mix well and check the pH with a pH meter.
as §1, with “170” for “100”, “phosphate monobasic, 21” for “chloride and 50”, “sodium hydroxide and 310 mg of sodium chloride, 110 mg of SIF powder” for “Triton X-100”, “Add” for “Add about 68 μL of 12 M HCl and”, “6.5.” for “1.8.”
Weigh 0.41 mL of glacial acetic acid, 202 mg of sodium hydroxide and 594 mg of sodium chloride, 560 mg of SIF powder into a 50-mL volumetric flask. Add appropriate volume of purified water to dissolve the solids. Then add sufficient purified water closely to the target volume and adjust to pH 5.0. Dilute to volume with purified water, mix well and check the pH with a pH meter.
Kinetic solubility was evaluated in water and three bio-relevant media (SGF, FaSSIF and FeSSIF) for 1/4/24 hours. 3-4 mg of solids were suspended in 3 mL each medium (solid loading: 1 mg/mL, calculated using freeform) to get a suspension, followed by rolling (25 rpm) at 37° C. for 1/4/24 hours. At each time point, ˜1.0 mL of suspension was sampled out for centrifugation (12000 rpm, 2 min) and filtration through 0.45 μm PTFE membrane to obtain supernatant for HPLC and pH tests, the residual solids were analyzed by XRPD.
Kinetic solubility was evaluated for 1:1 Compound II Citrate Salt (Form A), 1:1 Compound II Tris Salt (Form B), and freeform of Compound II in water and three bio-relevant media (SGF, FaSSIF and FeSSIF) for 1/4/24 hours. 3-4 mg of solids were suspended in 3 mL each medium (solid loading:
1 mg/mL, calculated using freeform) to get a suspension, followed by rolling (25 rpm) at 37° C. for 1/4/24 hours. At each time point, ˜1.0 mL of suspension was sampled out for centrifugation (12000 rpm, 2 min) and filtration through 0.45 μm PTFE membrane to obtain supernatant for HPLC and pH tests, the residual solids were analyzed by XRPD. […] The purity results were for reference only since the samples were all suspensions.

[2] = Solid stability evaluation (I/II), XRPD and HPLC; assay type: physicochemical; details: for Observation / Purity (area %): listed as Freeform
Experimental: To evaluate the physical and chemical stability of 1:1 Compound I Tris Salt (Form A) and amorphous free form, samples were stored under the conditions of 60° C. for 1 day and 25° C./60% RH or 40° C./75% RH for 1 week, respectively.
To evaluate the physical and chemical stability of 1:1 Compound II Citrate Salt (Form A), 1:1 Compound II Tris Salt (Form B) and freeform, samples were stored under the conditions of 60° C. for 1 day and 25° C./60% RH or 40° C./75% RH for 1 week, respectively.

[3] = FaSSIF, 1 hour, listed as Freeform
[4] = FaSSIF, 4 hours, listed as Freeform
[5] = FaSSIF, 24 hours, listed as Freeform
[6] = FeSSIF, 1 hour, listed as Freeform
[7] = FeSSIF, 4 hours, listed as Freeform
[8] = FeSSIF, 24 hours, listed as Freeform
[9] = H2O, 1 hour, listed as Freeform
[10] = H2O, 4 hours, listed as Freeform
[11] = H2O, 24 hours, listed as Freeform
[12] = SGF, 1 hour, listed as Freeform
[13] = SGF, 4 hours, listed as Freeform
[14] = SGF, 24 hours, listed as Freeform

N#Cc1ccc(COc2cccc(C3=CCN(Cc4nc5ccc(C(=O)O)cc5n4C[C@@H]4CCO4)CC3)n2)c(F)c1 [Compound II, (S)-2-((6-((4-cyano-2-fluorobenzyl)oxy)-3′,6′-dihydro-[2,4′-bipyridin]-1′(2′H)-yl)methyl)-1-(oxetan-2-ylmethyl)-1H-benzo[d]imidazole-6-carboxylic acid]
S: solubility [1, 3]: 20 µg/mL | Purity (%), area percentage of API [1, 3]: 85.92% | S: solubility [1, 4]: 20 µg/mL | Purity (%), area percentage of API [1, 4]: 72.84% | S: solubility [1, 5]: 20 µg/mL | Purity (%), area percentage of API [1, 5]: 66.76% | S: solubility [1, 6]: 30 µg/mL | Purity (%), area percentage of API [1, 6]: 71.16% | S: solubility [1, 7]: 20 µg/mL | Purity (%), area percentage of API [1, 7]: 47.29% | S: solubility [1, 8]: 40 µg/mL | Purity (%), area percentage of API [1, 8]: 37.65% | S: solubility [1, 9]: 30 µg/mL | Purity (%), area percentage of API [1, 9]: 93.84% | S: solubility [1, 10]: 30 µg/mL | Purity (%), area percentage of API [1, 10]: 86.44% | S: solubility [1, 11]: 40 µg/mL | Purity (%), area percentage of API [1, 11]: 89.76% | S: solubility [1, 12]: 200 µg/mL | Purity (%), area percentage of API [1, 12]: 94.17% | S: solubility [1, 13]: 200 µg/mL | Purity (%), area percentage of API [1, 13]: 81.32% | S: solubility [1, 14]: 100 µg/mL | Purity (%), area percentage of API [1, 14]: 76.04% | FC: form change ([1]; FaSSIF, 1 hour): No | FC: form change [1, 4]: No | FC: form change ([1]; FaSSIF, 24 hours): Yes | FC: form change ([1]; FeSSIF, 1 hour): No | FC: form change ([1]; FeSSIF, 4 hours): Yes | FC: form change [1, 8]: No | FC: form change ([1]; H2O, 1 hour): No | FC: form change [1, 10]: No | FC: form change [1, 11]: No | FC: form change [1, 12]: No | FC: form change ([1]; SGF, 4 hours): Yes | FC: form change ([1]; SGF, 24 hours): Yes | pH [1, 3]: 6.5 | pH [1, 4]: 6.5 | pH [1, 5]: 6.4 | pH [1, 6]: 5.0 | pH [1, 7]: 5.1 | pH [1, 8]: 5.0 | pH [1, 9]: 6.6 | pH [1, 10]: 7.0 | pH [1, 11]: 7.3 | pH ([1]; SGF, 1 hour): 1.9 | pH [1, 13]: 1.9 | pH [1, 14]: 1.8 | Form change ([2]; 25° C./60% RH (open), 1 week): No | Observation ([2]; 25° C./60% RH (open), 1 week): Yellow | Purity (area %) ([2]; 25° C./60% RH (open), 1 week): 94.58 area % | Form change ([2]; 40° C./75% RH (open), 1 week): No | Observation ([2]; 40° C./75% RH (open), 1 week): Yellow | Purity (area %) ([2]; 40° C./75% RH (open), 1 week): 92.86 area % | Form change ([2]; 60° C. (capped), 1 day): No | Observation ([2]; 60° C. (capped), 1 day): Yellow | Purity (area %) ([2]; 60° C. (capped), 1 day): 88.94 area % | Form change ([2]; Initial): No | Observation ([2]; Initial): Yellow | Purity (area %) ([2]; Initial): 95.27 area %
